Publication PMC6677754, “In silico design and optimization of selective membranolytic anticancer peptides” (Scientific Reports, 2019)
Where two headings read alike, the source gives them in different places. Peptide text beside a SMILES is read from it.

Tests used:
[1] = test system: human erythrocytes; assay: Hemolysis assay; type: cell-based; details: for Eryhtr. HC50 /µM: 1 h
In short: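 Washed human erythrocytes (5% v/v in PBS) were mixed with peptide plated as a 200–6.25 μM series, in triplicate, for 1 h at 37 °C. Released haemoglobin in the supernatant was read at 540 nm, scaled to 0.1% Triton X-100 (100%) and PBS (0%). HC50 came from a 3-parameter log-logistic fit.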

[2] = test system: noncancer HDMEC primary cells (human dermal microvascular endothelial cells); assay: Cell viability assay (MTT); type: cell-based; details: for EC50: Table S2, noncancer primary cells, MTT, 24 h, mean ± sd, N = 2 independent measurements with six technical replicates each (Figs S6-S8)
In short: (§1)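 Viability by MTT: 10^4 cells/well exposed 24 h to 2-fold peptide dilutions from 100 μM in DMEM, then 1 h with 0.5 mg mL−1 MTT; absorbance at 540 nm relative to peptide-free medium as 100% survival. EC50 from a 3-parameter log-logistic fit.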

[3] = test system: RPMI-8226; assay: NCI-60 screening; type: cell-based, human; details: RPMI-8226 (Leukemia); log GI50; 48 h, sulforhodamine B, 10^-4 to 10^-8 M
Protocol: (§2) NCI-60 screening procedure
(§3) The NCI-60 screening procedure was performed by the Developmental Therapeutics Program of the National Cancer Institute. The procedure was performed as previously described24 in 96-well microtiter plates. Each peptide was tested in a 5-concentration assay, starting at 10^-4 M and diluting 10-fold to the lowest 10^-8 M concentration. The peptides were incubated for 48 h and the cell concentration was assayed by using the sulforhodamine B assay25 and optical density measurements. The growth inhibition (GI50) value24, measures the growth inhibitory power of the drug agent. The GI50 value is the concentration of the test drug for which the condition in Eq. S1 is met, where T is the optical density of the test well after a 48-h exposure to the peptide, T0 the optical density before applying the peptide drug and C the control optical density of a well where no peptide was applied.

[4] = test system: NCI-H460; assay: NCI-60 screening; type: cell-based, human; details: NCI-H460 (Lung); log GI50; 48 h, sulforhodamine B, 10^-4 to 10^-8 M
Protocol: as §2, §3

[5] = test system: SNB-19; assay: NCI-60 screening; type: cell-based, human; details: SNB-19 (CNS); log GI50; 48 h, sulforhodamine B, 10^-4 to 10^-8 M
Protocol: as §2, §3

[6] = test system: SR; assay: NCI-60 screening; type: cell-based, human; details: SR (Leukemia); log GI50; 48 h, sulforhodamine B, 10^-4 to 10^-8 M
Protocol: as §2, §3

[7] = test system: UACC-257; assay: NCI-60 screening; type: cell-based, human; details: UACC-257 (Melanoma); log GI50; 48 h, sulforhodamine B, 10^-4 to 10^-8 M
Protocol: as §2, §3

[8] = test system: T-47D; assay: NCI-60 screening; type: cell-based, human; details: T-47D (Breast); log GI50; 48 h, sulforhodamine B, 10^-4 to 10^-8 M
Protocol: as §2, §3

[9] = test system: MCF7 breast adenocarcinoma cell line; assay: Cell viability assay (MTT); type: cell-based, human
In short: as §1

[10] = test system: A549 lung adenocarcinoma cell line; assay: Cell viability assay (MTT); type: cell-based, human; details: MTT
In short: as §1

[11] = Fig. 1d, compared with the EC50 against cancer cell lines, N = 3

| Compound | half-effective hemolytic concentration (HC50) against human erythrocytes (in words) [1, 11] | Eryhtr. HC50 /µM ([1]; Table S2, 5% v/v erythrocytes in PBS added 1:1, peptide 200 to 6.25 µM, 37°C, absorbance 540 nm, 0.1% Triton-X-100 = 100%, mean ± sd, N = 2 independent, three technical replicates) | EC50 value against the noncancer HDMEC primary cell line (in words) [2, 11] | EC50 [2] | Log GI (M) [3] | Log GI (M) [4] | Log GI (M) [5] | Log GI (M) [6] | Log GI (M) [7] | Log GI (M) [8] | EC50 ([9]; 10^4 cells per well, 24 h with peptide, 2-fold dilution series from 100 µM in DMEM, absorbance 540 nm, mean ± std, N = 3) | EC50 ([10]; 10^4 cells per well, 24 h with peptide, 2-fold dilution series from 100 µM in DMEM, absorbance 540 nm, mean ± std, N = 3, read-out: A549 EC50/µM) | Eryhtr. HC50 /µM ([1]; red cells of human) | EC50 ([9]; Table S2, 24 h, mean ± sd, N = 2 independent measurements with six technical replicates each (Figs S6-S8)) | EC50 ([10]; Table S2, 24 h, mean ± sd, N = 2 independent measurements with six technical replicates each (Figs S6-S8), read-out: A549 EC50 /µM) |
| --- | --- | --- | --- | --- | --- | --- | --- | --- | --- | --- | --- | --- | --- | --- | --- |
| CC[C@H](C)[C@H](NC(=O)[C@H](CCCNC(=N)N)NC(=O)[C@H](Cc1c[nH]c2ccccc12)NC(=O)[C@@H](NC(=O)[C@H](CCCCN)NC(=O)[C@H](CCCCN)NC(=O)[C@@H](NC(=O)[C@@H](NC(=O)[C@@H](NC(=O)[C@H](CCCCN)NC(=O)[C@H](Cc1ccccc1)NC(=O)[C@H](CCCCN)NC(=O)[C@H](CCCCN)NC(=O)[C@H](Cc1ccccc1)NC(=O)[C@@H](NC(=O)[C@@H](N)CCCCN)[C@@H](C)CC)[C@@H](C)O)[C@@H](C)CC)[C@@H](C)CC)C(C)C)C(=O)N[C@@H](Cc1ccccc1)C(=O)NCC(=O)N[C@@H](CCCNC(=N)N)C(=O)N[C@@H](Cc1ccccc1)C(N)=O [AmphiArc2] (H-KIFKKFKTIIKKVWRIFGRF-NH2) | same low-micromolar range | 16 ± 2 µM | same low-micromolar range | 3.3 ± 0.2 µM | -5.51 M | -5.62 M | -5.58 M | -5.57 M | -5.54 M | -5.66 M | 5.7 ± 0.7 µM | 9.3 ± 1.5 µM |  |  |  |
| CC[C@H](C)[C@H](NC(=O)[C@H](CCCCN)NC(=O)[C@H](CCCCN)NC(=O)[C@@H](NC(=O)[C@@H](NC(=O)[C@@H](N)Cc1c[nH]cn1)[C@@H](C)CC)[C@@H](C)CC)C(=O)N[C@@H](CCCNC(=N)N)C(=O)N[C@H](C(=O)N[C@@H](Cc1c[nH]c2ccccc12)C(=O)N[C@@H](Cc1ccc(O)cc1)C(=O)N[C@@H](CCCNC(=N)N)C(=O)N[C@@H](CCCCN)C(=O)N[C@@H](C)C(=O)N[C@@H](Cc1c[nH]c2ccccc12)C(=O)N[C@@H](Cc1c[nH]cn1)C(=O)N[C@H](C(=O)N[C@@H](CC(C)C)C(=O)NCC(=O)N[C@@H](CCCCN)C(=O)N[C@H](C(N)=O)C(C)C)C(C)C)[C@@H](C)O [Off2] (H-HIIKKIRTWYRKAWHVLGKV-NH2) |  |  |  | 32 ± 3 µM | -5.06 M | -5.48 M | -4.74 M | -5.15 M | -5.07 M | -5.72 M |  |  | > 200 µM | 10 ± 2 µM | 17 ± 0.6 µM |
